Series [1] has as its target T1, Phosphodiesterase 3 (Homo sapiens, UniProt Q14432+Q13370). Put plainly: Inhibition of PDE3 (unknown origin) at 10 uM. In kind it is protein assay.
In series [2] the target is T2, Phosphodiesterase 4 (Homo sapiens, UniProt P27815+Q08499+Q07343+Q08493). Briefly: Inhibition of PDE4 (unknown origin) at 10 uM. In kind it is protein assay.
Series [3] is described as follows: Oral bioavailability in NMRI mouse at 0.5 mg/kg by LC/MS/MS analysis. Format: ADME, organism-based. As to conditions: in vivo.
Series [4] has as its target T3, Hepatocyte growth factor receptor (Homo sapiens, UniProt P08581). Briefly: Inhibition of c-Met kinase in human A549 cells assessed as inhibition of phosphorylation after 45 mins by electrochemiluminescence assay.
Series [5] is described as follows: Clearance in NMRI mouse at 0.2 mg/kg, iv and 0.5 mg/kg, po by LC/MS/MS analysis. In kind it is ADME, organism-based. As to conditions: in vivo.
In series [6] the target is T3, Hepatocyte growth factor receptor. Put plainly: Inhibition of GST-His6-tagged recombinant human c-Met kinase domain (956 to 1390) after 60 mins by anoff-chip mobility shift assay.
A short description of series [7]: Lipophilicity, log D of the compound. In kind it is physicochemical. As to conditions: octanol/water.
Series [8] addresses T2, Phosphodiesterase 4. Put plainly: Inhibition of PDE4 (unknown origin). In kind it is protein assay.
Series [9] has as its target T1, Phosphodiesterase 3. Briefly: Inhibition of PDE3 (unknown origin). Format: protein assay.
Series [10] is described as follows: Aqueous solubility of the compound in phosphate buffer at pH 7.4. Format: physicochemical.
Series [11] can be described thus: Volume of distribution at steady state in Wistar rat at 3 mg/kg, iv after 24 hrs by LC/MS/MS analysis. Set-up: dose 3 mg/kg, route intravenous. Format: ADME, organism-based. As to conditions: in vivo, read-out: Vdss.
The nature of series [12]: Cmax in cynomolgus monkey at 5 mg/kg, po after 72 hrs by LC/MS/MS analysis. In kind it is ADME, organism-based, Macaca fascicularis. Set-up: dose 5 mg/kg, route oral. The note with it: in vivo.
The nature of series [13]: Fraction unbound in NMRI mouse plasma. Format: ADME, cell-free.
Series [14] is described as follows: Cmax in Wistar rat at 6 mg/kg, po after 24 hrs by LC/MS/MS analysis. Format: ADME, organism-based. On the set-up: dose 6 mg/kg, route oral. The note with it: in vivo.
Series [15] can be described thus: Fraction unbound in cynomolgus monkey plasma. Format: ADME, cell-free, Macaca fascicularis.
Series [16] is described as follows: Half life in Wistar rat at 3 mg/kg, iv after 24 hrs by LC/MS/MS analysis. Set-up: dose 3 mg/kg, route intravenous. Format: ADME, organism-based. The note with it: in vivo.
A short description of series [17]: Oral bioavailability in NMRI mouse at 5 mg/kg after 24 hrs by LC/MS/MS analysis. The note with it: in vivo. Format: ADME, organism-based.
Series [18] can be described thus: Volume of distribution at steady state in NMRI mouse at 2 mg/kg, iv after 24 hrs by LC/MS/MS analysis. Format: ADME, organism-based. Set-up: dose 2 mg/kg, route intravenous. The note with it: in vivo, read-out: Vdss.
Series [19] can be described thus: Volume of distribution at steady state in beagle dog at 2 mg/kg, iv after 48 hrs by LC/MS/MS analysis. On the set-up: dose 2 mg/kg, route intravenous. In kind it is ADME, organism-based, Canis lupus familiaris. The note with it: in vivo, read-out: Vdss.
The nature of series [20]: Clearance in beagle dog at 2 mg/kg, iv after 48 hrs by LC/MS/MS analysis. On the set-up: dose 2 mg/kg, route intravenous. The note with it: in vivo. Format: ADME, organism-based, Canis lupus familiaris.
Series [21] in a line: Oral bioavailability in cynomolgus monkey at 5 mg/kg after 72 hrs by LC/MS/MS analysis. Format: ADME, organism-based, Macaca fascicularis. The note with it: in vivo.
Series [22] is described as follows: Fraction unbound in human plasma. In kind it is ADME, cell-free.
A short description of series [23]: Plasma protein binding in human at 0.3 uM. In kind it is ADME, cell-free. The note with it: read-out: PPB (converted).
Series [24] can be described thus: Oral bioavailability in beagle dog at 5 mg/kg after 48 hrs by LC/MS/MS analysis. In kind it is ADME, organism-based, Canis lupus familiaris. The note with it: in vivo.
Series [25] in a line: Clearance in Wistar rat at 3 mg/kg, iv after 24 hrs by LC/MS/MS analysis. Format: ADME, organism-based. On the set-up: dose 3 mg/kg, route intravenous. As to conditions: in vivo.
A short description of series [26]: Cmax in beagle dog at 5 mg/kg, po after 48 hrs by LC/MS/MS analysis. In kind it is ADME, organism-based, Canis lupus familiaris. The note with it: in vivo. Set-up: dose 5 mg/kg, route oral.
Series [27] in a line: Fraction unbound in Wistar rat plasma. In kind it is ADME, cell-free.
A short description of series [28]: Half life in beagle dog at 2 mg/kg, iv after 48 hrs by LC/MS/MS analysis. In kind it is ADME, organism-based, Canis lupus familiaris. On the set-up: dose 2 mg/kg, route intravenous. The note with it: in vivo.
Series [29] deals with EBC-1. Put plainly: Antitumor activity against human EBC1 cells xenografted in CD-1 nude mouse assessed as tumor regression at 15 mg/kg, po qd administered for 5 days on and 2 days off up to 32 days. Set-up: dose 15 mg/kg. Format: functional, organism-based.
Series [30] can be described thus: Half life in NMRI mouse at 2 mg/kg, iv after 24 hrs by LC/MS/MS analysis. Set-up: dose 2 mg/kg, route intravenous. Format: ADME, organism-based. As to conditions: in vivo.
The nature of series [31]: Clearance in NMRI mouse at 2 mg/kg, iv after 24 hrs by LC/MS/MS analysis. Format: ADME, organism-based. As to conditions: in vivo. On the set-up: dose 2 mg/kg, route intravenous.
A short description of series [32]: Plasma protein binding in human at 10 uM. In kind it is ADME, cell-free. As to conditions: read-out: PPB (converted).
The nature of series [33]: Toxicity in po dosed CD-1 nude mouse xenografted with human EBC1 cells administered qd for 5 days on and 2 days off up to 32 days. In kind it is organism-based. As to conditions: in vivo.
A short description of series [34]: Half life in cynomolgus monkey at 2 mg/kg, iv after 72 hrs by LC/MS/MS analysis. Format: ADME, organism-based, Macaca fascicularis. Set-up: dose 2 mg/kg, route intravenous. The note with it: in vivo.
Series [35] in a line: Cmax in NMRI mouse at 5 mg/kg, po after 24 hrs by LC/MS/MS analysis. Format: ADME, organism-based. Set-up: dose 5 mg/kg, route oral. As to conditions: in vivo.
Series [36] is described as follows: Oral bioavailability in Wistar rat at 6 mg/kg after 24 hrs by LC/MS/MS analysis. The note with it: in vivo. In kind it is ADME, organism-based.
A short description of series [37]: Clearance in cynomolgus monkey at 2 mg/kg, iv after 72 hrs by LC/MS/MS analysis. In kind it is ADME, organism-based, Macaca fascicularis. On the set-up: dose 2 mg/kg, route intravenous. The note with it: in vivo.
Series [38] is described as follows: Volume of distribution at steady state in cynomolgus monkey at 2 mg/kg, iv after 72 hrs by LC/MS/MS analysis. Set-up: dose 2 mg/kg, route intravenous. The note with it: in vivo, read-out: Vdss. Format: ADME, organism-based, Macaca fascicularis.
Series [39] in a line: Fraction unbound in beagle dog plasma. In kind it is ADME, cell-free, Canis lupus familiaris.
In series [40] the test system is Mus musculus. Briefly: Toxicity in CD-1 nude mouse xenografted with human EBC1 cells assessed as body weight loss at 15 mg/kg, po qd administered for 5 days on and 2 days off up to 32 days. Format: organism-based. Set-up: dose 15 mg/kg, route oral. The note with it: in vivo.

This is an account of results in ChEMBL document CHEMBL3399942, “Identification and optimization of pyridazinones as potent and selective c-Met kinase inhibitors” (Bioorg Med Chem Lett, 2015).

Calls of active or inactive are those of the source. The calls are words filed in the database; no cut-off is given here. Some results are limits rather than exact numbers.

T3 sequence (P08581 whole entry): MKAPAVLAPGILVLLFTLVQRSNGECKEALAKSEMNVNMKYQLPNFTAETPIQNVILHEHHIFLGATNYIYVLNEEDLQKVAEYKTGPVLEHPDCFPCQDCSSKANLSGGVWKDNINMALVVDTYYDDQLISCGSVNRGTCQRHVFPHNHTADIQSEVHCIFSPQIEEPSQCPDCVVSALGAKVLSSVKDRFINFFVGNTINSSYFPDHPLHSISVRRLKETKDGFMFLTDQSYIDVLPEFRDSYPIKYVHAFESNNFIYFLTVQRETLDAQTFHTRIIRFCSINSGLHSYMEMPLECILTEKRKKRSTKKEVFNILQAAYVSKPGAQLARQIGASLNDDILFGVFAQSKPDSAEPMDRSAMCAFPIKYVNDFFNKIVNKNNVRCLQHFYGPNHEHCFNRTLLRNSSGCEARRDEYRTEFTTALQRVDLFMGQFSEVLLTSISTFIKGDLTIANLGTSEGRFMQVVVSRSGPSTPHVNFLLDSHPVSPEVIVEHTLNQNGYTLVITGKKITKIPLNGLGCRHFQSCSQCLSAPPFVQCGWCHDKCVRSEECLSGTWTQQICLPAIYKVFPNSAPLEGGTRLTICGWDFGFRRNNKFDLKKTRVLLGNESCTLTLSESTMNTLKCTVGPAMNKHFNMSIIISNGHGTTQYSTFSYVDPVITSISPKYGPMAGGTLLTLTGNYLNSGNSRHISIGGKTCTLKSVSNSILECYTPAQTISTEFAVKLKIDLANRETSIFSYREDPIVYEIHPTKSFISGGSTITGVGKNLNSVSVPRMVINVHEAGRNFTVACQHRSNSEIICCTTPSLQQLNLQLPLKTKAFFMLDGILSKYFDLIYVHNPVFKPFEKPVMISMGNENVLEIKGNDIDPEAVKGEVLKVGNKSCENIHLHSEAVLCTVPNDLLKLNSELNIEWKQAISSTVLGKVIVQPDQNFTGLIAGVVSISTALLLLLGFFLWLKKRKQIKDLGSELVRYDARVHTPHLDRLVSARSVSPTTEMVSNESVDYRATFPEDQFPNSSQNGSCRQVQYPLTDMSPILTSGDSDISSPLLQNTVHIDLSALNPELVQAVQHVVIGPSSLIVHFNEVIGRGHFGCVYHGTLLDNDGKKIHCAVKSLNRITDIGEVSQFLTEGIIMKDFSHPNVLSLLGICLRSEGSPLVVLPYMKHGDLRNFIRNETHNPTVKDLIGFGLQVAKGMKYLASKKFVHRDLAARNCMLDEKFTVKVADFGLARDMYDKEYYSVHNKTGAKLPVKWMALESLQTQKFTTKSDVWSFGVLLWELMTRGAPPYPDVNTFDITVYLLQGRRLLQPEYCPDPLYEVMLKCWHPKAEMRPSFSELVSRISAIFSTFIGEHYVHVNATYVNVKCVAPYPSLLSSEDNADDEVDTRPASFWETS

With `O=C(Nc1cccc(Cn2nc(-c3cc(F)cc(F)c3)ccc2=O)c1)OCCCN1CCOCC1`, the inhibition in series [1] was 8%; in series [2], 19%.
In series [3], `CN(C)CCCOC(=O)Nc1cccc(CN2N=C(c3cc(F)cc(F)c3)CSC2=O)c1` had a bioavailability of 25%. In addition, the IC50 in series [4] was found to be 78 nM; in [6], 23 nM. Besides, the clearance in series [5] was 56.7 mL/min/kg.
With `Cc1nc(-c2cccc(Cn3nc(-c4cc(F)cc(F)c4)ccc3=O)c2)no1`, the IC50 in [6] turned out to be 800 nM.
On to `CCN(CC)CCCOC(=O)Nc1cccc(CN2N=C(c3ccc(Cl)cc3)CSC2=O)c1`, for which the figures for the inhibition in [1] and in series [2] were 1% and 49%, respectively. Also, the IC50 in series [6] was determined as 90 nM.
In series [7], `COc1cccc(-c2ccc(=O)n(Cc3cccc(-c4ncc(OCCCN(C)C)cn4)c3)n2)c1` yielded a logD of 2.6.
For `CCN(CC)CCCOC(=O)Nc1cccc(CN2N=C(c3ccc(OC)c(OC)c3)CSC2=O)c1`, the bioavailability in series [3] is less than 5%. The IC50 in series [4] was determined as 1100 nM; in [8] it was 63 nM; in series [6], 400 nM; in [9], 1500 nM. The same molecule gave a clearance in series [5] of 100 mL/min/kg.
For the molecule `CN(C)CCCOC(=O)Nc1cccc(Cn2nc(-c3ccc(F)cc3)ccc2=O)c1`, the results for the inhibition in series [1] and in series [2] were 28% and 8%, respectively.
The molecule `CN(C)CCCOC(=O)Nc1cccc(Cn2nc(-c3cc(F)cc(F)c3)ccc2=O)c1` returned a bioavailability in series [3] of 30%. This molecule also showed a clearance in [5] of 51.7 mL/min/kg.
Turning to `N#Cc1cccc(-c2ccc(=O)n(Cc3cccc(-c4ncc(OCCN5CCOCC5)cn4)c3)n2)c1`, the bioavailability in series [3] came out at 35%. Also, the IC50 was determined as 34 nM in series [4] and 1 nM in [6]. The clearance in series [5] was 35 mL/min/kg.
In the case of `CN(C)CCCOc1cnc(-c2cccc(Cn3nc(-c4cccnc4)ccc3=O)c2)nc1`, the logD in series [7] stood at 1.4.
Take `Cc1cnc(-c2cccc(Cn3nc(-c4cc(F)cc(F)c4)ccc3=O)c2)nc1`: the solubility in [10] is less than 1 µg/mL.
In series [7], `CN(C)CCCOc1cnc(-c2cccc(Cn3nc(-c4cc(F)cc(F)c4)ccc3=O)c2)nc1` yielded a logD of 3.
`CN(C)CCCOc1cnc(-c2cccc(Cn3nc(-c4cccc(C#N)c4)ccc3=O)c2)nc1` showed a bioavailability in [3] of 32%. The molecule further showed a clearance in series [5] of 102 mL/min/kg. Moreover, in [7], the logD is 2.4.
Take `CN1CCC(COc2cnc(-c3cccc(Cn4nc(-c5cccc(C#N)c5)ccc4=O)c3)nc2)CC1` [TEPOTINIB]: the Vd in series [11] came out at 20 L/kg; in series [18] it was 8.2 L/kg; in series [19], 26 L/kg; in series [38], 9.6 L/kg. Besides, the Cmax in series [12] stood at 55.5 ng/mL; in [14] it was 66 ng/mL; in series [26], 22.4 ng/mL; in series [35] it was 62.2 ng/mL. The fraction unbound in series [13] is 0.028; in [15] it was 0.052; in [22], 0.023; in series [27] it was 0.041; in [39], 0.064. Besides, the bioavailability in series [3] was 34%; in series [17], 41%; in series [21], 25%; in [24], 22%; in series [36], 55%. Moreover, the half-life is 192 min in series [16], 456 min in series [28], 126 min in [30] and 600 min in [34]. Moreover, the clearance in series [5] is 60 mL/min/kg; in [20], 55 mL/min/kg; in series [25], 78.3 mL/min/kg; in [31] it was 66.7 mL/min/kg; in [37], 12.2 mL/min/kg. The fraction unbound at 0.3 µM in series [23] was 0.016. Moreover, the outcome in series [29] was Active. Also, the fraction unbound at 10 µM in series [32] was 0.034. In addition, the MTD in [33] amounted to 15 mg/kg. The Activity result in series [40] was “Non-toxic”.
With `CN(C)CCCOc1cnc(-c2cccc(Cn3nc(-c4cccc(F)c4)ccc3=O)c2)nc1`, the IC50 in [4] was determined as 140 nM; in series [6], 6.5 nM. The logD in series [7] was 2.6.
Take `Cc1cnc(-c2cccc(Cn3nc(-c4cc(F)cc(F)c4)ccc3=O)c2)[nH]1`: the IC50 in series [6] turned out to be 5300 nM.
